# Tests used:
# [1] = biological target: T1, human p110α subunit of PI3K (PI3Kα) (Homo sapiens, UniProt P42336); assay: Solid-Phase Lipid Kinase p110α assay; format: biochemical; details: recombinant truncated (ΔN 1-108) p110α, 7.5 ng/well; final 10 μM ATP; RT 2 hours
# T1 construct: His6 (N); made in house; host or cells: S. frugiperda 9 (Sf9) insect cells
# Excerpt: [Determination of IC50 Values of Compounds in Kinase Assay of PI3Kα]
# Phosphatidylinositol (Ptdlns) and phosphatidylserine (PtdSer) were purchased from DOOSAN SERDARY RESEARCH LABORATORIES (Toronto, Canada). Recombinant truncated forms (ΔN 1-108) of the human p110α and p110β subunits of PI3K with N-terminal His6-Tags were expressed in S. frugiperda 9 insect cells. Recombinant human PI3Kγ (full length human PI3K p1107 fused with a His6-tag at the C-terminus expressed in S. frugiperda 9 insect cells) was obtained from ALEXIS BIOCHEMICALS (#201-055-C010; San Diego, Calif.). [γ^33P]ATP and unlabeled ATP were purchased from AMERSHAM PHARMACIA BIOTECH (Buckinghamshire, UK) and ROCHE DIAGNOSTICS (Mannheim, Germany), respectively. Scintillation cocktails Ultima Gold™ scintillation cocktail were purchased from PERKIN ELMER. Maxisorp™ plates were purchased from NALGE NUNC INTERNATIONAL K.K. (Tokyo, Japan). All other chemicals not further specified were from WAKO PURE CHEMICALS (Osaka, Japan). […]
# (§1) The radioactivity incorporated into the immobilized PI substrate was determined with a BetaPlate Liquid Scintillation Counter (PerkinElmer).
# (§2) The inhibition percent at each concentration of compound was calculated, and IC50 values were determined from the inhibition of curve.
# [2] = biological target: T2, human p110β subunit of PI3K (PI3Kβ) (Homo sapiens, UniProt P42338); assay: Solid-Phase Lipid Kinase p110β assay; format: biochemical; details: recombinant truncated (ΔN 1-108) p110β, 7.5 ng/well; otherwise as PI3Kα assay
# T2 construct: His6 (N); made in house; host or cells: S. frugiperda 9 (Sf9) insect cells
# Method: To assess inhibition of PI3Kα by compounds, the Maxisorp™ plates were coated with 50 μL/well of a solution containing 50 μg/ml Ptdlns and 50 μg/ml PtdSer dissolved in chloroform:ethanol (3:7). The plates were subsequently air-dried by incubation for at least 2 hours in a fume hood. The reaction was set up by mixing 25 μL/well of assay buffer 2× (100 mM MOPSO/NaOH, 0.2 M NaCl, pH 7.0, 8 mM MgCl2, 2 mg/mL BSA (fatty acid-free)), and 7.5 ng/well PI3Kα in the lipid pre-coated plate. 10× test compounds were added in 2% DMSO. The reaction was started by adding 5 μL/well of a 40 μM ATP mix (final 10 μM ATP; 20 μCi/ml[γ^33P]ATP). After incubation at RT for 2 hours, the reaction was terminated by adding 5 μl/well stop solution (25 mM EDTA, pH 8.0). The plate was then washed twice with Tris-buffered saline (TBS, pH 7.4). Ultima Gold™ (PERKINELMER) scintillation mix was added at 25 μL/well.
# as §1, §2
# A recombinant truncated form (ΔN 1-108) of the human p110β or […] subunit of PI3K with an N-terminal His6-Tag was expressed in S. frugiperda 9 insect cells. […]
# T1 sequence (P42336 109-1068): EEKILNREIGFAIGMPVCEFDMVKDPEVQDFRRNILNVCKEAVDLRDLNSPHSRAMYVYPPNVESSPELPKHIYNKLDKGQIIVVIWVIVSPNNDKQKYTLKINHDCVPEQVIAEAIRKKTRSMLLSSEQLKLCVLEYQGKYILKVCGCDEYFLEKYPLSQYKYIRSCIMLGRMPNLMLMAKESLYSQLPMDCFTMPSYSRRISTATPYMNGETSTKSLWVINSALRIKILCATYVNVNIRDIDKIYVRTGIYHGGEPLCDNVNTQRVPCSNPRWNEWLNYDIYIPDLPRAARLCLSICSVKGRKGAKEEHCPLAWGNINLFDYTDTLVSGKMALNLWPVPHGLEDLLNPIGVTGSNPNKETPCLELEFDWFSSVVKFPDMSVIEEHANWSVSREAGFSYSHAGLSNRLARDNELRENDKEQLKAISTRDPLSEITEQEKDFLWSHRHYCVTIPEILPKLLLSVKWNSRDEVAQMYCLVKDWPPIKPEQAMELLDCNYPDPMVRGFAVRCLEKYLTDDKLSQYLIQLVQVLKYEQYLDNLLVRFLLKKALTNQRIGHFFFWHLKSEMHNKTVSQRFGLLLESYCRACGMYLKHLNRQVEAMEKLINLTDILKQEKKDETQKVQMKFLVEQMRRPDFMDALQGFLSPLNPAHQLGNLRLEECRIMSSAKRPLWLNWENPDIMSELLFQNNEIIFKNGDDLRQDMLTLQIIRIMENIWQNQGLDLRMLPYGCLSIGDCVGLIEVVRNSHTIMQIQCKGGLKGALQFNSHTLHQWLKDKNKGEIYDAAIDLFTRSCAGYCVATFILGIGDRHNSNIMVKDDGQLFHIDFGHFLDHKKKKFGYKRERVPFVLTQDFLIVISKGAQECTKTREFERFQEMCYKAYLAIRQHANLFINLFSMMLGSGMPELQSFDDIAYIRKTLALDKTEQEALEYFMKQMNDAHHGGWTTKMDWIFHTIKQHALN
# T2 sequence (P42338 109-1070): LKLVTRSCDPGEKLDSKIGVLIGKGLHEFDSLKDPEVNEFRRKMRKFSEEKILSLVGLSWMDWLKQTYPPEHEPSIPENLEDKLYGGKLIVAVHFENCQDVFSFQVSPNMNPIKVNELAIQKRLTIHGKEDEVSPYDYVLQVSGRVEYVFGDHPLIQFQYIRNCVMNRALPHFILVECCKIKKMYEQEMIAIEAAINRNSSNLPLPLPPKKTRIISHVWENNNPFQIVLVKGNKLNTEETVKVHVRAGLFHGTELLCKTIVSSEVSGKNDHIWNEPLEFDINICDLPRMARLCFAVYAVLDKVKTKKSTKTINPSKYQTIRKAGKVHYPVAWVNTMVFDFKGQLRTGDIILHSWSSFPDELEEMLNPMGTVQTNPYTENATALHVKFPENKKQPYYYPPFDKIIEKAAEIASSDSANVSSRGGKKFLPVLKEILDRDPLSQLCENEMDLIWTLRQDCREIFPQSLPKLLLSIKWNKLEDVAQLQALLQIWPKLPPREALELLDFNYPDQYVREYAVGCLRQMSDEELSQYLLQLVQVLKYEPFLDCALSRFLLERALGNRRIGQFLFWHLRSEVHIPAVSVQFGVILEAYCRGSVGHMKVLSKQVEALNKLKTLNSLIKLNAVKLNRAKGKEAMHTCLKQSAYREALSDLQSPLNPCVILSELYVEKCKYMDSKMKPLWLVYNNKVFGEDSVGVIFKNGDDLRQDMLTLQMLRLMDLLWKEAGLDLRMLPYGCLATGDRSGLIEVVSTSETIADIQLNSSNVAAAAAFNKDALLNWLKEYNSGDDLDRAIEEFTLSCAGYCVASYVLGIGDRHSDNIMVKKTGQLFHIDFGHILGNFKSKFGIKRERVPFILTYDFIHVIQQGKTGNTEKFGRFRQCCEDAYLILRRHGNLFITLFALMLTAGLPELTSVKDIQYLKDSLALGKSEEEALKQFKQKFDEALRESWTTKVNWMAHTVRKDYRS
IC50 [1] [nM],IC50 [2] [nM],SMILES
0.7,,"COc1c(OCCCN2CCOCC2=O)ccc2c1N=C(NC(=O)c1cnc(N)nc1)N1CCN=C21 [drawing 15, 2-amino-N-{7-methoxy-8-[3-(3-oxomorpholin-4-yl)propoxy]-2,3-dihydroimidazo[1,2-c]quinazolin-5-yl}pyrimidine-5-carboxamide]"
,13,"COc1c(OCCCN2CCOCC2=O)ccc2c1N=C(NC(=O)c1cnc(N)nc1)N1CCN=C21 [drawing 16, 2-amino-N-{7-methoxy-8-[3-(3-oxomorpholin-4-yl)propoxy]-2,3-dihydroimidazo[1,2-c]quinazolin-5-yl}pyrimidine-5-carboxamide]"

# Reference: patent US10844066B2, “2-amino-N-[7-methoxy-2, 3-dihydroimidazo-[1,2-c] quinazolin-5-yl] pyrimidine-5-carboxamides” (Bayer Pharma Aktiengesellschaft, priority 2016, dated 2020)
